Laboratory results from ChEMBL document CHEMBL1255445, “Evaluation of nucleoside hydrolase inhibitors for treatment of African trypanosomiasis” (Antimicrob Agents Chemother, 2010).
pIC50, pKi: −log10 of the molar value. Activity calls are given as the source filed them. The rule behind the calls is not given here.

Legend:
Trypanosoma cruzi = experiment: Antitrypanosomal activity against Trypanosoma cruzi Tulahuen CL2 s-galactosidase strain assessed as reduction in parasite growth after 3 days by fluorometrically; assay type: functional, organism-based
Plasmodium falciparum = experiment: Antiparasitic activity against chloroquine-sensitive Plasmodium falciparum Ghana assessed as reduction in parasite growth after 3 days by fluorimetry; assay type: functional, organism-based
[1] = Inhibition of human purine nucleoside phosphorylase
Leishmania infantum = experiment: Antileishmanial activity against Leishmania infantum MHOM/MA/67/ITMAP263 intracellular amastigotes assessed as reduction in parasite growth after 3 days by fluorometrically; assay type: functional, organism-based
[2] = Inhibition of Trypanosoma vivax Inosine-adenosine-guanosine-nucleoside hydrolase
[3] = tested on: Trypanosoma brucei brucei; experiment: Antitrypanosomal activity against suramin sensitive Trypanosoma brucei brucei Lister 427 assessed as reduction in parasite growth after 3 days by fluorometrically; assay type: functional, organism-based; conditions: Lister 427, 72 h

| SMILES | Activity (Trypanosoma cruzi) | Activity (Plasmodium falciparum) | pKi [1] | Activity (Leishmania infantum) | pKi [2] | pIC50 [3] |
| --- | --- | --- | --- | --- | --- | --- |
| OC[C@@H]1[C@@H](O)[C@@H](O)CN1Cc1cccc2c(Cl)ccnc12 | inactive | inactive | < 3.00 | inactive | 7.85 | 4.60 |
| COc1cccc2c(CN3C[C@H](O)[C@H](O)[C@H]3CO)c[nH]c12 | inactive | inactive | < 3.40 | inactive | 5.64 | < 4.19 |
| OC[C@@H]1[C@@H](O)[C@@H](O)CN1Cc1cccc2nccnc12 | inactive | inactive | < 3.00 | inactive | 6.85 | < 4.19 |
| O=c1[nH]cnc2c(CN3C[C@H](O)[C@H](O)[C@H]3CO)cccc12 | inactive | inactive | < 3.00 | inactive | 6.96 | < 4.19 |
| O=c1cc[nH]c2c(CN3C[C@H](O)[C@H](O)[C@H]3CO)cccc12 | inactive | inactive | < 3.30 | inactive | 4.88 | < 4.19 |
| COc1ccc(CN2C[C@H](O)[C@H](O)[C@H]2CO)cn1 | inactive | inactive |  | inactive | 4.49 | < 4.19 |
| O=[N+]([O-])c1ccc(CN2C[C@H](O)[C@H](O)[C@H]2CO)cc1 | inactive | inactive |  | inactive | 5.12 | < 4.19 |
| OC[C@@H]1[C@@H](O)[C@@H](O)CN1Cc1nccc2ccccc12 | inactive | inactive |  | inactive | 6.12 |  |
| OC[C@@H]1[C@@H](O)[C@@H](O)CN1Cc1ccccc1 | inactive | inactive |  | inactive | 4.24 |  |
| OC[C@@H]1[C@@H](O)[C@@H](O)CN1Cc1ccc(-n2cccn2)cc1 | inactive | inactive |  | inactive | 5.92 | < 4.19 |
| Cc1nn(-c2ccccc2)nc1CN1C[C@H](O)[C@H](O)[C@H]1CO | inactive | inactive |  | inactive | 7.20 | < 4.19 |
| OC[C@@H]1[C@@H](O)[C@@H](O)CN1Cc1ccncc1 | inactive | inactive |  | inactive | 4.70 |  |
| OC[C@@H]1[C@@H](O)[C@@H](O)CN1Cc1ccc(-n2cccc2)cc1 | inactive | inactive |  | inactive | 6.00 | 4.42 |
| OC[C@@H]1[C@@H](O)[C@@H](O)CN1Cc1csc2cncnc12 | inactive | inactive | < 3.00 | inactive | 7.38 | < 4.19 |
| OC[C@@H]1[C@@H](O)[C@@H](O)CN1Cc1ccc2ccccc2n1 | inactive | inactive |  | inactive | 6.74 |  |
| CN1C(CCNC(=N)N)[C@H](O)[C@H](O)[C@H]1CO (some centres not stated) | inactive | inactive |  | inactive | 4.74 |  |
| COc1ccc2cccc(CN3C[C@H](O)[C@H](O)[C@H]3CO)c2n1 | inactive | inactive |  | inactive | 5.89 | < 4.19 |
| OC[C@@H]1[C@@H](O)[C@@H](O)CN1Cc1ccc2cccc(O)c2n1 | inactive | inactive |  | inactive | 6.00 | 4.31 |
| Cn1nnc2cc(CN3C[C@H](O)[C@H](O)[C@H]3CO)ccc21 | inactive | inactive |  | inactive | 6.14 | < 4.19 |
| OC[C@@H]1[C@@H](O)[C@@H](O)CN1Cc1ccc2ccccc2c1 | inactive | inactive |  | inactive | 5.70 | < 4.19 |
| O=c1ccc2cccc(CN3C[C@H](O)[C@H](O)[C@H]3CO)c2[nH]1 | inactive | inactive |  | inactive | 3.73 | < 4.19 |
| OC[C@@H]1[C@@H](O)[C@@H](O)CN1Cc1ccc2cccnc2c1 | inactive | inactive |  | inactive | 6.14 | < 4.19 |
| Nc1ncccc1CN1C[C@H](O)[C@H](O)[C@H]1CO | inactive | inactive |  | inactive | 3.92 | < 4.19 |

| SMILES | Activity (Trypanosoma cruzi) | Activity (Plasmodium falciparum) | pKi [1] | Activity (Leishmania infantum) | pKi [2] | pIC50 [3] |
| --- | --- | --- | --- | --- | --- | --- |
| Cc1nc(-c2ccccc2)ncc1CN1C[C@H](O)[C@H](O)[C@H]1CO | inactive | inactive |  | inactive | 4.37 | < 4.19 |
| OC[C@@H]1[C@@H](O)[C@@H](O)CN1Cc1ccnc2ccccc12 | inactive | inactive |  | inactive | 4.54 | < 4.19 |
| OC[C@@H]1[C@@H](O)[C@@H](O)CN1Cc1cnc2ccccc2c1 | inactive | inactive |  | inactive | 4.70 | < 4.19 |
| Nc1ccnc2c(CN3C[C@H](O)[C@H](O)[C@H]3CO)cccc12 | inactive | inactive | < 3.00 | inactive | 7.30 | < 4.19 |
| N=C(N)NCCCN1C[C@H](O)[C@H](O)[C@H]1CO | inactive | inactive |  | inactive | 4.40 | < 4.19 |
| N=C(N)Nc1ccc(CN2C[C@H](O)[C@H](O)[C@H]2CO)cc1 | inactive | inactive |  | inactive | 5.15 | < 4.19 |
| Nc1ncnc2c(CN3C[C@H](O)[C@H](O)[C@H]3CO)cccc12 | inactive | inactive | < 3.00 | inactive | 7.82 | < 4.19 |
| OC[C@H]1NC[C@H](O)[C@@H]1O [IMINORIBITOL] | inactive | inactive |  | inactive | 5.22 | < 4.19 |
| N=C(N)NCCN1C[C@H](O)[C@H](O)[C@H]1CO | inactive | inactive |  | inactive | 3.54 | < 4.19 |
| Cn1c(CN2C[C@H](O)[C@H](O)[C@H]2CO)nc2ccccc21 | inactive | inactive |  | inactive | 5.68 |  |
| O=[N+]([O-])c1cccc(CN2C[C@H](O)[C@H](O)[C@H]2CO)c1 | inactive | inactive |  | inactive | 4.64 | < 4.19 |
| Cc1cc(N)c2cccc(CN3C[C@H](O)[C@H](O)[C@H]3CO)c2n1 | inactive | inactive |  | inactive | 4.15 | < 4.19 |
| N=C(N)c1ccc(CN2C[C@H](O)[C@H](O)[C@H]2CO)cc1 | inactive | inactive |  | inactive | 5.17 | 4.32 |
| N#Cc1cccc(CN2C[C@H](O)[C@H](O)[C@H]2CO)c1 | inactive | inactive |  | inactive | 5.42 | < 4.19 |
| N#Cc1ccc(CN2C[C@H](O)[C@H](O)[C@H]2CO)cc1 | inactive | inactive |  | inactive | 4.59 |  |
| OC[C@@H]1[C@@H](O)[C@@H](O)CN1Cc1ccc(-n2cncn2)cc1 | inactive | inactive |  | inactive | 5.92 | < 4.19 |
| OC[C@@H]1[C@@H](O)[C@@H](O)CN1CCc1c[nH]c2ccccc12 | inactive | inactive |  | inactive | 5.02 | 4.51 |
| OC[C@@H]1[C@@H](O)[C@@H](O)CN1Cc1cccc(-n2cccc2)c1 | inactive | inactive |  | inactive | 5.47 | 4.54 |
| OC[C@@H]1[C@@H](O)[C@@H](O)CN1Cc1ccc(I)cc1 | inactive | inactive |  | inactive | 5.37 | < 4.19 |
| OC[C@@H]1[C@@H](O)[C@@H](O)CN1Cc1cccc2ccc(Cl)nc12 | inactive | inactive |  | inactive | 6.51 | 4.54 |
| Nc1ccc2cccc(CN3C[C@H](O)[C@H](O)[C@H]3CO)c2n1 | inactive | inactive |  | inactive | 5.08 | < 4.19 |
| Cc1cc(Cl)c2cccc(CN3C[C@H](O)[C@H](O)[C@H]3CO)c2n1 | inactive | inactive |  | inactive | 6.43 | 4.66 |
| OC[C@@H]1[C@@H](O)[C@@H](O)CN1Cc1c[nH]c2ccccc12 | inactive | inactive | < 3.10 | inactive | 4.92 | < 4.19 |
